Assay results: patent publication EP4043466B1, “PRC2 INHIBITORS” (Mirati Therapeutics, Inc., priority 2018, dated 2019)
Read-outs that look alike come from different tables or passages of the source.

What was measured:
[1] = target: purified human, His-tagged PRC2 complex (Homo sapiens, UniProt O75530+Q15910); test: Hot Spot HMT assay: inhibition of PRC2 enzymatic activity (transfer of tritiated methyl from SAM to core histone, filter binding); assay type: biochemical
Description: The assay uses purified human, His-tagged PRC2 complex, including N-terminal His-tagged EZH2 enzyme, N-terminal Flag-tagged embryonic ectoderm development protein (EED), N-terminal His-tagged suppressor of zeste 12 (SUZ12), N-terminal His-tagged AEBP2, and N-terminal His-tagged RbAp48. In this assay, the transfer of the tritiated methyl group from radiolabeled S-adenosyl methionine (SAM) to purified core histone protein by EZH2 is quantitated after filtration to determine the activity of the core PRC2 complex in the presence and absence of compound.
The initial starting concentration for the serial dilutions of each compound was 1.0 µM. […] SAH (S-(5-adenosyl)-L-homocysteine) was used as a positive control for assay validation.
An aliquot of each serial dilution of test compound was added to deep 384 well plate using Acoustic Technology instrument (Echo 550, LabCyte) containing reaction buffer (50 mM Tris-HCl (pH 8.)), 0.01% Brij35, 1 mM EDTA, 1 mM DTT, 1 mM PMSF and 1% DMSO), 10 nM purified PRC2 complex and 0.05 mg/ml core histone H3 in a 5 µl volume. The reaction was mixed gently and then pre-incubated for 20 min at 30°C. The enzymatic reaction was initiated by adding 1 uM S-Adenosyl-L-[methyl - ^3H]methionine and incubated for 1 hr at 30°C. After 1 hr, the reaction product was detected using a filter binding method and the amount of tritiated H3 core histone was quantitated using a scintillation counter.

Karpas 422 cells = test: Karpas 422 cell viability, CTG (Cell Titre Glo) assay; assay type: cell-based, human; details: Homo sapiens; Inhibition of proliferation of Karpas 422 cells (EZH2 Y641N); viability measured Day 4, Day 7 or Day 11, time point of the tabulated values not stated
Experimental: Karpas 422 cell line is a human B cell non-Hodgkin's lymphoma cell line established from a patient having DLBCL. This EZH2 heterozygotic cell line expresses a mutant form of EZH2 enzyme (Y641N) that increases histone H3 methylation and this mutation has been implicated in the tumorgenesis of lymphomas, such as DLBCL.
Karpas 422 cells (PHE cat no., 06101702) were cultured in RPMI medium supplemented with 20% fetal bovine serum and 1% penicillin/1% streptomycin and plated at a density of 1000 cells/90 µl/well in 96 well white assay plates. A dose response curve for compounds of the present invention was determined by adding a 10µl aliquot of stock solutions of varying concentrations of compounds to the same medium in each well, over a concentration range of 10µM using 3-fold dilutions to a final concentration of 1.5nM. The plates were incubated at 37° C for predetermined time periods, Day 4, Day 7, or Day 11, and the viability of the cells was measured using a CTG assay kit (Cell Titre Glo; Promega cat.no G7573) on Day 4 and Day 7 in accordance with the manufacturer's instructions.
For the viability assay for the Day 11 plates, the plates were subjected to centrifugation at 1100 rpm for five minutes on Day 7 and the supernatant was removed by aspiration. The cells were resuspended in 90 µl aliquot of the appropriate growth medium lacking the compound followed by addition of 10 µl of a 10X stock of the same compound at the same concentration. The viability of the Day 11 cells was measured using the CTG assay kit described above in accordance with the manufacturer's instructions. The IC50 values for each compound at each predetermined time point were calculated using Graph pad PRISM software and the results are shown in Table 15. A = ≤250 nM; B = […] - ≤500 nM; and C = >500 nM.

[2] = Inhibition of PRC2-mediated enzymatic activity, 10 nM PRC2 complex, 0.05 mg/ml core histone H3, 1 uM 3H-SAM, 1 hr at 30°C

purified human, His-tagged PRC2 complex, sequence (Q15910 whole entry): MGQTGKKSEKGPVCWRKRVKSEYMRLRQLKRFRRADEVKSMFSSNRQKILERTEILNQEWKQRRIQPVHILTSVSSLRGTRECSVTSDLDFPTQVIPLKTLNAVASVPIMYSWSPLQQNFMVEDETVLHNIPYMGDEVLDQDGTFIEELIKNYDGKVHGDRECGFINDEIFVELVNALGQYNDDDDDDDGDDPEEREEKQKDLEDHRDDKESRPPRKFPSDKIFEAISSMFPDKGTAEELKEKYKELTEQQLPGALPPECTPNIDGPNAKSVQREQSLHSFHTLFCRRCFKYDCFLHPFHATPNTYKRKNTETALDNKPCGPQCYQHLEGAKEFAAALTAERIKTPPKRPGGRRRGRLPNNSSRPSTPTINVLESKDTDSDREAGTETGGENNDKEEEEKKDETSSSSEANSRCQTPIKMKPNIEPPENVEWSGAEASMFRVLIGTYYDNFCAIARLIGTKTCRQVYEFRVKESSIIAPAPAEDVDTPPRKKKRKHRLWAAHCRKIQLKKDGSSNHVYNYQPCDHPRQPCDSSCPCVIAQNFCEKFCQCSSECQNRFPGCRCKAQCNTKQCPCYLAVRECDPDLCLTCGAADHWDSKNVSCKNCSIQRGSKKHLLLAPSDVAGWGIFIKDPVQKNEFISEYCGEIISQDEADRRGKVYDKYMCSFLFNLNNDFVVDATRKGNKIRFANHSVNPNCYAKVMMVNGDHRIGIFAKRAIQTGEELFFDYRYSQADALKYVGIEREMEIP
purified human, His-tagged PRC2 complex, sequence (O75530 whole entry): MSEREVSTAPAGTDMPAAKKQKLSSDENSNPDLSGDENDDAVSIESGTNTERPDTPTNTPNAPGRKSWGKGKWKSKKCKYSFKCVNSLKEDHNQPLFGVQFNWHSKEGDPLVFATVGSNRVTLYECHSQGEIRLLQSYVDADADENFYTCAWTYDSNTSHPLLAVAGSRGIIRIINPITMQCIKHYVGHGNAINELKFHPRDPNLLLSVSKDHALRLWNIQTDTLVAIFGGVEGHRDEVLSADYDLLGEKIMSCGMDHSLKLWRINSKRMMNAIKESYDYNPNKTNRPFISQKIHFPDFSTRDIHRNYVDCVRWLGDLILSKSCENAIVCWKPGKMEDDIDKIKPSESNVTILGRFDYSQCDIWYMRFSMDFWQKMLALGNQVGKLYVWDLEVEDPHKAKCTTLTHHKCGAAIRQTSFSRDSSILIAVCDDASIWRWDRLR
purified human, His-tagged PRC2 complex, sequence (Q15022 whole entry partner): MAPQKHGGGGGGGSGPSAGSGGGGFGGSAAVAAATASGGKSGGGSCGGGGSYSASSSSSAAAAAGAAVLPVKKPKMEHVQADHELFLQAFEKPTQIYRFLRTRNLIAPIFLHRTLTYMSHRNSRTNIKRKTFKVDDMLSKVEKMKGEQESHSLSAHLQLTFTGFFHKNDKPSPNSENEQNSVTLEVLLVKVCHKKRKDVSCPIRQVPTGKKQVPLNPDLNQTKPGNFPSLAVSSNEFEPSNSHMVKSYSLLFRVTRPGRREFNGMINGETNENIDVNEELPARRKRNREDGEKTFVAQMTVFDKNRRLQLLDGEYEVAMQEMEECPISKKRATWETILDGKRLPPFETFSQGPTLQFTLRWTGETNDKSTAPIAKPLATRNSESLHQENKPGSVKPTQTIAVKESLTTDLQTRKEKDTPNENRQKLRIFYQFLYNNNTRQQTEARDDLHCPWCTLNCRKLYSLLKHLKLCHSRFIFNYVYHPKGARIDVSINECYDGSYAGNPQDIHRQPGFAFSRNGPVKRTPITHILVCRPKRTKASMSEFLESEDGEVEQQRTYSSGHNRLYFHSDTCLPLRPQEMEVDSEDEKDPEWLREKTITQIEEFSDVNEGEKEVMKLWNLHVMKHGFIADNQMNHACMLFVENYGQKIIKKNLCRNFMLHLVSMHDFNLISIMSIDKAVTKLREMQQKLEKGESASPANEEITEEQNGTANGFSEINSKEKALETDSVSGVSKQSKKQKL
purified human, His-tagged PRC2 complex, sequence (Q6ZN18 whole entry partner): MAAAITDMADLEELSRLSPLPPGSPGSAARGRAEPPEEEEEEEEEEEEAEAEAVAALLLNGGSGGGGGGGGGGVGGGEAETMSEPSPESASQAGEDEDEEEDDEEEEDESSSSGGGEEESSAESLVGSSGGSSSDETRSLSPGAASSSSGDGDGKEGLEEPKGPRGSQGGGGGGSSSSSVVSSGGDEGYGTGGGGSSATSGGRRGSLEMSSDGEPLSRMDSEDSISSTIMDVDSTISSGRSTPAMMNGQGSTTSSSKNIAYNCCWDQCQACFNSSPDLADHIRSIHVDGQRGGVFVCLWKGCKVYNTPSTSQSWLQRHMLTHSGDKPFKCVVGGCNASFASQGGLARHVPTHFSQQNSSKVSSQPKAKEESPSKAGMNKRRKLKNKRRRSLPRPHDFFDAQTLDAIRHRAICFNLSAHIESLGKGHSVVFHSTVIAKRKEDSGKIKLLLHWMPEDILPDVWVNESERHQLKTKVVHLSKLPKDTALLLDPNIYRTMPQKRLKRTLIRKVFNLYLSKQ
purified human, His-tagged PRC2 complex, sequence (Q09028 whole entry partner): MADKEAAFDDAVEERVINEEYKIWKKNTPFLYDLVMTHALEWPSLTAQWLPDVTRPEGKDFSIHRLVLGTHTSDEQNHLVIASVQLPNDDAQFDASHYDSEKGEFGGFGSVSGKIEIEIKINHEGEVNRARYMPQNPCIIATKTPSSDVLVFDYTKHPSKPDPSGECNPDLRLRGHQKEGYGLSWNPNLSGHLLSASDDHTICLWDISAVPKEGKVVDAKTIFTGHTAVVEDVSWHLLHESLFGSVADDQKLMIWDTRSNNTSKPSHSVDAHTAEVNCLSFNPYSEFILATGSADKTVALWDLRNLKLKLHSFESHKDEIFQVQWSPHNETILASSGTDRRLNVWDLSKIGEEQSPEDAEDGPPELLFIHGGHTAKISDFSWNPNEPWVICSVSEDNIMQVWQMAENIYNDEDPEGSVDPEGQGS

| Compound | IC50 [1, 2] [nM] | IC50 (Karpas 422 cells) [nM] | IC50 [1] [nM] |
| --- | --- | --- | --- |
| Cc1nn(C(C)C)cc1-c1cnc(NCc2c(F)ccc3c2CCO3)n2cc(C(=O)O)nc12 [Example 5, 5-(((5-fluoro-2,3-dihydrobenzofuran-4-yl)methyl)amino)-8-(1-isopropyl-3-methyl-1H-pyrazol-4-yl)imidazo[1,2-c]pyrimidine-2-carboxylic acid] | < 100 | > 500 | – |
| Cc1nc(C2CC2)ncc1-c1cnc(NCc2c(F)ccc3c2CCO3)n2cc(C(=O)O)nc12 [Example 7, 8-(2-cyclopropyl-4-methylpyrimidin-5-yl)-5-(((5-fluoro-2,3-dihydrobenzofuran-4-yl)methyl)amino)imidazo[1,2-c]pyrimidine-2-carboxylic acid] | < 100 | > 500 | – |
| Cc1cc(-c2cnc(NCc3c(F)ccc4occc34)n3cc(C(=O)O)nc23)n(C)n1 [Example 9, 8-(1,3-dimethyl-1H-pyrazol-5-yl)-5-(((5-fluorobenzofuran-4-yl)methyl)amino)imidazo[1,2-c]pyrimidine-2-carboxylic acid] | < 100 | > 500 | – |
| Cc1ncccc1-c1cnc(NCc2c(F)ccc3occc23)n2cc(C(N)=O)nc12 [Example 12, 5-(((5-fluorobenzofuran-4-yl)methyl)amino)-8-(2-methylpyridin-3-yl)imidazo[1,2-c]pyrimidine-2-carboxamide] | < 100 | > 500 | – |
| Cc1nn(C(C)C)cc1-c1cnc(NCc2c(F)ccc3c2CCO3)n2cc(C(N)=O)nc12 [Example 13, 5-(((5-fluoro-2,3-dihydrobenzofuran-4-yl)methyl)amino)-8-(1-isopropyl-3-methyl-1H-pyrazol-4-yl)imidazo[1,2-c]pyrimidine-2-carboxamide] | < 100 | 250 to 500 | – |
| Cc1c(-c2cnc(NCc3c(F)ccc4c3CCO4)n3cc(C(N)=O)nc23)cnn1C(C)C [Example 16, 5-(((5-fluoro-2,3-dihydrobenzofuran-4-yl)methyl)amino)-8-(1-isopropyl-5-methyl-1H-pyrazol-4-yl)imidazo[1,2-c]pyrimidine-2-carboxamide] | < 100 | 250 to 500 | – |
| Cc1cc(-c2cnc(NCc3cccc4c3CCO4)n3cc(C(N)=O)nc23)n(C)n1 [Example 19, 5-(((2,3-dihydrobenzofuran-4-yl)methyl)amino)-8-(1,3-dimethyl-1H-pyrazol-5-yl)imidazo[1,2-c]pyrimidine-2-carboxamide] | < 100 | 250 to 500 | – |
| CNC(=O)c1cn2c(NCc3c(F)ccc4c3CCO4)ncc(-c3cc(C)nn3C)c2n1 [Example 20, 8-(1,3-dimethyl-1H-pyrazol-5-yl)-5-(((5-fluoro-2,3-dihydrobenzofuran-4-yl)methyl)amino)-N-methylimidazo[1,2-c]pyrimidine-2-carboxamide] | < 100 | ≤ 250 | – |
| Cc1cc(-c2cnc(NCc3c(F)ccc4c3CCO4)n3cc(C(=O)N(C)C)nc23)n(C)n1 [Example 21, 8-(1,3-dimethyl-1H-pyrazol-5-yl)-5-(((5-fluoro-2,3-dihydrobenzofuran-4-yl)methyl)amino)-N,N-dimethylimidazo[1,2-c]pyrimidine-2-carboxamide] | > 500 | ≤ 250 | – |
| Cc1nc(C2CC2)ncc1-c1cnc(NCc2c(F)ccc3c2CCO3)n2cc(C#N)nc12 [Example 25, 8-(2-cyclopropyl-4-methylpyrimidin-5-yl)-5-(((5-fluoro-2,3-dihydrobenzofuran-4-yl)methyl)amino)imidazo[1,2-c]pyrimidine-2-carbonitrile] | 100 to 500 | 250 to 500 | – |
| Cc1cc(-c2cnc(NCc3c(Cl)ccc4c3CCO4)n3cc(C#N)nc23)n(C)n1 [Example 29, 5-(((5-chloro-2,3-dihydrobenzofuran-4-yl)methyl)amino)-8-(1,3-dimethyl-1H-pyrazol-5-yl)imidazo[1,2-c]pyrimidine-2-carbonitrile] | > 500 | > 500 | – |
| CN(C)Cc1ccc(-c2cnc(NCc3c(F)ccc4c3CCO4)n3cc(C#N)nc23)c(Cl)c1 [Example 33, 8-(2-chloro-4-((dimethylamino)methyl)phenyl)-5-(((5-fluoro-2,3-dihydrobenzofuran-4-yl)methyl)amino)imidazo[1,2-c]pyrimidine-2-carbonitrile] | < 100 | ≤ 250 | – |
| CN(C)Cc1ccc(-c2cnc(NCc3c(F)ccc4c3CCO4)n3cc(C#N)nc23)c(F)c1F [Example 37, 8-(4-((dimethylamino)methyl)-2,3-difluorophenyl)-5-(((5-fluoro-2,3-dihydrobenzofuran-4-yl)methyl)amino)imidazo[1,2-c]pyrimidine-2-carbonitrile] | < 100 | ≤ 250 | – |
| Cc1cc(S(C)(=O)=O)ccc1-c1cnc(NCc2c(F)ccc3c2CCO3)n2cc(C#N)nc12 [Example 87, 5-(((5-fluoro-2,3-dihydrobenzofuran-4-yl)methyl)amino)-8-(2-methyl-4-(methylsulfonyl)phenyl)imidazo[1,2-c]pyrimidine-2-carbonitrile] | – | ≤ 250 | – |
| Cc1cn(-c2cnc(NCc3c(F)ccc4c3CCO4)n3cc(C#N)nc23)cn1 [Example 139, 5-(((5-fluoro-2,3-dihydrobenzofuran-4-yl)methyl)amino)-8-(4-methyl-1H-imidazol-1-yl)imidazo[1,2-c]pyrimidine-2-carbonitrile] | – | ≤ 250 | – |
| CN(C)Cc1cc(-c2cnc(NCc3c(F)ccc4c3CCO4)n3cc(C#N)nc23)n(C)n1 [Example 210, 8-(3-((dimethylamino)methyl)-1-methyl-1H-pyrazol-5-yl)-5-(((5-fluoro-2,3-dihydrobenzofuran-4-yl)methyl)amino)imidazo[1,2-c]pyrimidine-2-carbonitrile] | – | – | < 100 |
| CNCc1cc(-c2cnc(NCc3c(F)ccc4c3CCO4)n3cc(C#N)nc23)n(C)n1 [Example 211, 5-(((5-fluoro-2,3-dihydrobenzofuran-4-yl)methyl)amino)-8-(1-methyl-3-((methylamino)methyl)-1H-pyrazol-5-yl)imidazo[1,2-c]pyrimidine-2-carbonitrile] | – | – | < 100 |
| CN(C)Cc1ncc(-c2cnc(NCc3c(F)ccc4c3CCO4)n3cc(C#N)nc23)cn1 [Example 216, 8-(2-((dimethylamino)methyl)pyrimidin-5-yl)-5-(((5-fluoro-2,3-dihydrobenzofuran-4-yl)methyl)amino)imidazo[1,2-c]pyrimidine-2-carbonitrile] | < 100 | – | – |
| CN1CCC1c1ccc(-c2cnc(NCc3c(F)ccc4c3CCO4)n3cc(C#N)nc23)cc1 (centres unmarked) [Example 221, 5-(((5-fluoro-2,3-dihydrobenzofuran-4-yl)methyl)amino)-8-(4-(1-methylazetidin-2-yl)phenyl)imidazo[1,2-c]pyrimidine-2-carbonitrile] | < 100 | – | – |
| N#Cc1cn2c(NCc3c(F)ccc4c3CCO4)ncc(-c3ccc(C4COCCN4)cc3)c2n1 (centres unmarked) [Example 225, 5-(((5-fluoro-2,3-dihydrobenzofuran-4-yl)methyl)amino)-8-(4-(morpholin-3-yl)phenyl)imidazo[1,2-c]pyrimidine-2-carbonitrile] | < 100 | – | – |
| N#Cc1cn2c(NCc3c(F)ccc4c3CCO4)ncc(-c3ccnn3CCO)c2n1 [Example 231, 5-(((5-fluoro-2,3-dihydrobenzofuran-4-yl)methyl)amino)-8-(1-(2-hydroxyethyl)-1H-pyrazol-5-yl)imidazo[1,2-c]pyrimidine-2-carbonitrile] | 100 to 500 | – | – |
| N#Cc1cn2c(NCc3c(F)ccc4c3CCO4)ncc(-c3n[nH]cc3Br)c2n1 [Example 232, 8-(4-bromo-1H-pyrazol-3-yl)-5-(((5-fluoro-2,3-dihydrobenzofuran-4-yl)methyl)amino)imidazo[1,2-c]pyrimidine-2-carbonitrile] | 100 to 500 | – | – |
